Data reported in patent publication US11858972B2, “Micropeptides and uses thereof” (FUNDACIÓ PRIVADA INSTITUT D'INVESTIGACIÓ ONCOLÒGICA DE VALL …, priority 2018, dated 2024).
*1 amine or outer side, *2 acyl side, *3 side chain or, on linkers, in order; H or OH if unused. Where a SMILES comes first, the peptide text is derived from it. Bridges are numbered along the chain shown (N, C = ends). Roman numbers before positions name the chains, in order. [ ]: non-standard residue; d: D form. Actinocin(9to1) = Cc1c2oc3c(C)ccc(C(=O)[*:1])c3nc-2c(C(=O)[*:2])c(N)c1=O; NMeV = CN[C@H](C(=O)O)C(C)C; Sar = CNCC(=O)O

Key:
Type in all cases: cell-based, human
[1] = tested on: SEQ ID NO:1 in HCT116 and A549 cells; assay: SEQ ID NO:1 expression (qPCR, Western Blot) after drug treatment, wild-type p53 cells; conditions: cells with wild-type p53 (HCT116 and A549); Doxorubicin 1 μM, Actinomycin D 1 nM, Nutlin-3a 10 μM
Procedure: (§1) FIG. 10. SEQ ID NO: 1 is induced by genotoxic stress in a p53-dependent manner. HCT116, HCT116 p53KO, A549 and BxPC3 were treated with Doxorubicin (1 μM) or Actinomycin D (1 nM) and Nutlin-3a (10 μM). SEQ ID NO: 1 transcriptional levels were measured by qPCR in A549 and HCT116 (A) and in HCT116 p53KO and BxPC-3 (B). mRNA expression is shown relative to the not treated control. SEQ ID NO: 1 protein was measured by Western Blot analysis using a custom-made anti-SEQ ID NO: 1 antibody in A549 and HCT116 (A) and in HCT116 p53KO and BxPC-3 (B). (C) Immunostaining showing the upregulation of SEQ ID NO: 1 in A549 cells using a custom-made anti-SEQ ID NO: 1 antibody upon Doxorubicin treatment.
(§2) Doxorubicin, Actinomycin D and Nutlin-3a were purchased from Sigma-Aldrich. Doxorubicin was used at 1 μM, Actinomycin D was used at […] and Nutlin-3a was used at 10 μM in drug treatment experiments.
(§3) Total RNA was extracted with Trizol® and treated with TURBO™ DNase following provider's recommendations. 1 μg of RNA was retrotranscribed using iScript™ cDNA Synthesis Kit (BioRad). Gene expression was analysed by quantitative real time PCR using PowerUp SYBR Green Master Mix (Thermo Fisher Scientific) in the 7900HT Fast Real-Time PCR System (Applied Biosystems). Cycle threshold (Ct) values were normalized to GAPDH.
(§4) Cells pellets (4-5*10^6 cells) were homogenized in medium-salt lysis buffer (150 mM NaCl, 50 mM Tris pH 8, 1% NP40 and protein inhibitors cocktail). 50 μg of protein was loaded per lane in a 12% acrylamide gel and electrophoresed in Tris-Glycine SDS Running Buffer. The following antibodies were used: Anti-HA-Tag (Abcam, 1:5000), Anti-p53 (Santa Cruz, 1:1000), Anti-p21 (Thermo Fisher, 1:1000), Anti-GAPDH (Thermo Fisher, 1:5000).

[2] = tested on: SEQ ID NO:1 in HCT116 p53KO and BxPC-3 cells; assay: SEQ ID NO:1 expression (qPCR, Western Blot) after drug treatment, p53 altered cells; conditions: p53 status altered: HCT116 p53KO, BxPC-3 (mutant p53); Doxorubicin 1 μM, Actinomycin D 1 nM, Nutlin-3a 10 μM
Procedure: as §1, §2, §3, §4

SEQ ID NO 3 in HCT116 = assay: SEQ ID NO: 3 mRNA levels by RT-qPCR after drug treatment in HCT116; conditions: Nutlin3a 10 μM 48 h, Doxorubicin 1 μM 24 h
Procedure: FIG. 25. […] (A) HCT116 and HCT116 p53KO cells were treated with MDM2 inhibitor Nutlin3a (10 μM) during 48 h. […] SEQ ID NO: 3 mRNA levels were tested by RT-qPCR. mRNA levels are presented relative to GAPDH reference gene. Bars represent average of n=3 technical replicates±SD.
as §2, §3

[3] = tested on: SEQ ID NO 3 in HCT116 p53 KO; assay: SEQ ID NO: 3 mRNA levels by RT-qPCR after drug treatment in HCT116 p53 knock-out; conditions: Nutlin3a 10 μM 48 h, Doxorubicin 1 μM 24 h
Procedure: FIG. 25. […] (A) HCT116 and HCT116 p53KO cells were treated with MDM2 inhibitor Nutlin3a (10 μM) during 48 h. SEQ ID NO: 3 transcriptional levels were tested by RT-qPCR. mRNA levels are normalized to untreated control (B) HCT116 and HCT116 p53KO cells were treated with genotoxic agent Doxorubicin (1 μM) during 24 h. SEQ ID NO: 3 mRNA levels were tested by RT-qPCR. mRNA levels are presented relative to GAPDH reference gene. Bars represent average of n=3 technical replicates±SD.
as §2, §3

Row | SMILES | expression of SEQ ID NO:1 (mRNA and protein levels) [1] | expression of SEQ ID NO:1 (mRNA and protein levels) [2] | SEQ ID NO 3 transcriptional levels (SEQ ID NO 3 in HCT116) | SEQ ID NO 3 transcriptional levels [3]
1 | Cc1c2oc3c(C)ccc(C(=O)N[C@@H]4C(=O)N[C@H](C(C)C)C(=O)N5CCC[C@H]5C(=O)N(C)CC(=O)N(C)[C@@H](C(C)C)C(=O)O[C@@H]4C)c3nc-2c(C(=O)N[C@@H]2C(=O)N[C@H](C(C)C)C(=O)N3CCC[C@H]3C(=O)N(C)CC(=O)N(C)[C@@H](C(C)C)C(=O)O[C@@H]2C)c(N)c1=O [Actinomycin D] (I: T[dV]P[Sar][NMeV] / II: T[dV]P[Sar][NMeV]; ester I:1-I:C, II:1-II:C; linker I:N-II:N via Actinocin(9to1)) | transcriptional and translational upregulation | do not shown the same response |  | 
2 | COc1cccc2c1C(=O)c1c(O)c3c(c(O)c1C2=O)C[C@@](O)(C(=O)CO)C[C@@H]3O[C@H]1C[C@H](N)[C@H](O)[C@H](C)O1 [Doxorubicin] | transcriptional and translational upregulation | do not shown the same response | upregulated | upregulation was impaired
3 | COc1ccc(C2=N[C@@H](c3ccc(Cl)cc3)[C@@H](c3ccc(Cl)cc3)N2C(=O)N2CCNC(=O)C2)c(OC(C)C)c1 [Nutlin-3a] | transcriptional and translational upregulation | do not shown the same response | upregulated | upregulation was impaired
